Results on 31 compounds are retold here after patent US20220002314A1 (priority 2018, published 2022).

Test [1] has as its target Human α2δ-1 subunit of Cav2.2 calcium channel (Homo sapiens, UniProt P54289). Description: biochemical. It is filed as binding.
The target of another test is Human μ-opioid receptor (Homo sapiens, UniProt P35372). Nature of the test: biochemical. It is filed as binding.

Like-named read-outs stand apart in the source and are kept apart here.

Chain of Human α2δ-1 subunit of Cav2.2 calcium channel (P54289 25-1103): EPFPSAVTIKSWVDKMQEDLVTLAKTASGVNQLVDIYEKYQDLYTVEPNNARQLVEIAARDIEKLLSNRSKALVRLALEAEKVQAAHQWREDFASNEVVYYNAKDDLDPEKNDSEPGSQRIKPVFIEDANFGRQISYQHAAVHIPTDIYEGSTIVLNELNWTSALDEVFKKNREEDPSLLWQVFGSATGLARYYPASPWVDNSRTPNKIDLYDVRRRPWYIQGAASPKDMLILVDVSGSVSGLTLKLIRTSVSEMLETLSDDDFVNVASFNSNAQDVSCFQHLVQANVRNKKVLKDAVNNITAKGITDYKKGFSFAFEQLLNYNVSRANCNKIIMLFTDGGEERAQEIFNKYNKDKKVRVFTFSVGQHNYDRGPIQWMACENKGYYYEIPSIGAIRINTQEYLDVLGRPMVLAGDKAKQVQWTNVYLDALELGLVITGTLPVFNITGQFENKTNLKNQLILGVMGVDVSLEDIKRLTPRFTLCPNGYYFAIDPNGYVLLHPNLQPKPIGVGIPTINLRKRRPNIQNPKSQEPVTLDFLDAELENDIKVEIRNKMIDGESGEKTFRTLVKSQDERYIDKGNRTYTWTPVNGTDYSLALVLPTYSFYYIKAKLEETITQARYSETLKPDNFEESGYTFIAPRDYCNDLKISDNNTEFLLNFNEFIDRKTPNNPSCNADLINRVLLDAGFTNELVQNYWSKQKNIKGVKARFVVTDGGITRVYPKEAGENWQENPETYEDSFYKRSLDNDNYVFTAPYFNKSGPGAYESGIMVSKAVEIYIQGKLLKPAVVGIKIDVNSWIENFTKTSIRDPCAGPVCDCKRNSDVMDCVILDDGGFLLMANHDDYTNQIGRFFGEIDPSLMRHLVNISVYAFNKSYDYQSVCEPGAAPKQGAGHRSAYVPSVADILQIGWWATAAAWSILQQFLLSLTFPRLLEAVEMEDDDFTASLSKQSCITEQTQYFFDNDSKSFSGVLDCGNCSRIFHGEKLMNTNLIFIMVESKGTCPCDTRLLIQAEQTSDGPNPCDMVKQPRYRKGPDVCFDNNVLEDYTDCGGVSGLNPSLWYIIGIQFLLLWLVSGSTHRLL
Chain of Human μ-opioid receptor (P35372 whole entry): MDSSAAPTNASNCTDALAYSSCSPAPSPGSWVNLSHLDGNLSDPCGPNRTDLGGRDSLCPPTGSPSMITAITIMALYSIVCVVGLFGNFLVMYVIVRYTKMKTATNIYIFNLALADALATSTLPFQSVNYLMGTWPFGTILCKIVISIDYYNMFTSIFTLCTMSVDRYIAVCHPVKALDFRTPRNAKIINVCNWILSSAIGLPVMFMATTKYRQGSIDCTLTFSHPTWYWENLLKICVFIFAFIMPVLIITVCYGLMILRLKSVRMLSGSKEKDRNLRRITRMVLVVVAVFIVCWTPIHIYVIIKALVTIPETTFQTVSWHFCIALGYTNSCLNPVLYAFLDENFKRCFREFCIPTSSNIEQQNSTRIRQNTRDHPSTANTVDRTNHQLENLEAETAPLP

In the case of `CCC[C@@H](c1nc2ccc(N3C[C@H](C)OC4(CCN(CCc5ccccc5)CC4)C3)cc2c(=O)n1CC)N1C[C@@H](C)N[C@@H](C)C1` [Example 155, 2-((S)-1-((3S,5R)-3,5-dimethylpiperazin-1-yl)butyl)-3-ethyl-6-((S)-2-methyl-9-phenethyl-1-oxa-4,9-diazaspiro[5.5]undecan-4-yl)quinazolin-4(3H)-one], the Ki is less than 500 nM in test [1] and more than 500 nM on Human μ-opioid receptor.
For `CCC[C@H](c1nc2ccc(C(F)(F)F)cc2c(=O)n1CC)N1CCN[C@@H](C)C1` [Example 207, 3-ethyl-2-((R)-1-((S)-3-methylpiperazin-1-yl)butyl)-6-(trifluoromethyl)quinazolin-4(3H)-one], in that order: less than 500 nM and 100 to 500 nM.
For `CCC[C@H](c1nc2cnc(C(F)(F)F)cc2c(=O)n1CC)N1CCN[C@H](C)C1` [Example 233, 3-Ethyl-2-((R)-1-((R)-3-methylpiperazin-1-yl)butyl)-6-(trifluoromethyl)pyrido[3,4-d]pyrimidin-4(3H)-one], in that order: less than 500 nM and more than 500 nM.
With `CCC[C@@H](c1nc2c(F)cc(Br)cc2c(=O)n1CC)N1CCN[C@@H](C)C1` [Example 52, 6-bromo-3-ethyl-8-fluoro-2-((S)-1-((S)-3-methylpiperazin-1-yl)butyl)quinazolin-4(3H)-one], the Ki was more than 5000 nM in test [1] and more than 500 nM on Human μ-opioid receptor.
Take `CCC[C@H](c1nc2ccc(Br)cc2c(=O)n1CC)[C@H]1CCN[C@@H](C)C1` [Example 191, 6-bromo-3-ethyl-2-((S)-1-((2S,4S)-2-methylpiperidin-4-yl)butyl)quinazolin-4(3H)-one]: the Ki in test [1] is less than 500 nM; on Human μ-opioid receptor it was 100 to 500 nM.
Consider `CCC[C@@H](c1nc2ccc(NCC[C@]3(c4ccccn4)CCOC4(CCCC4)C3)cc2c(=O)n1CC)N1C[C@@H](C)N[C@@H](C)C1` [Example 161, 2-((S)-1-((3S,5R)-3,5-dimethylpiperazin-1-yl)butyl)-3-ethyl-6-((2-((S)-9-(pyridin-2-yl)-6-oxaspiro[4.5]decan-9-yl)ethyl)amino)quinazolin-4(3H)-one], for which the Ki in test [1] is more than 5000 nM; on Human μ-opioid receptor, more than 500 nM.
The like results for `CCC[C@H](c1nc2cc(O[C@H](CCNC)c3ccccc3)ccc2c(=O)n1C)N1C[C@@H](C)N[C@@H](C)C1` [Example 165, 2-((R)-1-((3S,5R)-3,5-dimethylpiperazin-1-yl)butyl)-3-methyl-7-((R)-3-(methylamino)-1-phenylpropoxy)quinazolin-4(3H)-one] were, in that order, 500 to 5000 nM and more than 500 nM.
For `CCC[C@H](c1nc2cc(F)c(Br)cc2c(=O)n1CC)N1CCN[C@@H](C)C1` [Example 106, 6-bromo-3-ethyl-7-fluoro-2-((R)-1-((S)-3-methylpiperazin-1-yl)butyl)quinazolin-4(3H)-one], in that order: less than 500 nM and less than 100 nM.
The like results for `CCCC(c1nc2cc(C(=O)OC)ccc2c(=O)n1CC)N1C[C@@H](C)N[C@@H](C)C1` (stereo partly drawn) [Example 7, methyl 2-(1-((3S,5R)-3,5-dimethylpiperazin-1-yl)butyl)-3-ethyl-4-oxo-3,4-dihydroquinazoline-7-carboxylate] were, in that order, less than 500 nM and 100 to 500 nM.
With `CCC[C@H](c1nc2ccc(Br)cc2c(=O)n1CC)N1CCN[C@@H](CC)C1` [Example 212, 6-bromo-3-ethyl-2-((R)-1-((S)-3-ethylpiperazin-1-yl)butyl)quinazolin-4(3H)-one], the figures for the Ki (in test [1]; on Human μ-opioid receptor) were less than 500 nM and more than 500 nM, respectively.
The like results for `CCC[C@H](c1nc2c(F)cc(Cl)cc2c(=O)n1C)N1CCN[C@@H](C)C1` [Example 223, 6-chloro-8-fluoro-3-methyl-2-((R)-1-((S)-3-methylpiperazin-1-yl)butyl)quinazolin-4(3H)-one] were, in that order, more than 5000 nM and less than 100 nM.
The like results for `CCC[C@H](c1nc2ccc(F)cc2c(=O)n1C)N1CCN[C@@H](C)C1` [Example 205, 6-fluoro-3-methyl-2-((R)-1-((S)-3-methylpiperazin-1-yl)butyl)quinazolin-4(3H)-one] were, in that order, less than 500 nM and 100 to 500 nM.
Consider `CCCC(c1nc2ccc(C#N)cc2c(=O)n1CC)N1C[C@@H](C)N[C@@H](C)C1` (stereo partly drawn) [Example 177, 2-(1-((3S,5R)-3,5-dimethylpiperazin-1-yl)butyl)-3-ethyl-4-oxo-3,4-dihydroquinazoline-6-carbonitrile], for which the Ki was less than 500 nM in test [1] and more than 500 nM on Human μ-opioid receptor.
Turning to `CCC[C@H](c1nc2ncc(Cl)cc2c(=O)n1CC)N1CCN[C@@H](C)C1` [Example 76, 6-Chloro-3-ethyl-2-((R)-1-((S)-3-methylpiperazin-1-yl)butyl)pyrido[2,3-d]pyrimidin-4(3H)-one], the Ki in test [1] is less than 500 nM; at Human μ-opioid receptor, 100 to 500 nM.
For `CCC[C@H](c1nc2c(F)cc(OC)cc2c(=O)n1CC)N1CCN[C@@H](C)C1` [Example 46, 3-ethyl-8-fluoro-6-methoxy-2-((R)-1-((S)-3-methylpiperazin-1-yl)butyl)quinazolin-4(3H)-one], in that order: less than 500 nM and 100 to 500 nM.
Regarding `CCC[C@H](c1nc2c(F)cc(F)c(F)c2c(=O)n1CC)N1CCN[C@@H](C)C1` [Example 226, 3-ethyl-5,6,8-trifluoro-2-((R)-1-((S)-3-methylpiperazin-1-yl)butyl)quinazolin-4(3H)-one], the Ki lay in the range of 500 to 5000 nM in test [1] and 100 to 500 nM at Human μ-opioid receptor.
As for `CCCC(c1nc2c(F)cc(Br)cc2c(=O)n1CC)N1CCNCC1` (centres unmarked) [Example 87, 6-bromo-3-ethyl-8-fluoro-2-(1-(piperazin-1-yl)butyl)quinazolin-4(3H)-one], the results for the Ki (in test [1]; at Human μ-opioid receptor) were 500 to 5000 nM and 100 to 500 nM, respectively.
For `CCC[C@H](c1nc2ccccc2c(=O)n1CC)N1CCN[C@@H](C)C1` [Example 43, 3-Ethyl-2-((R)-1-((S)-3-methylpiperazin-1-yl)butyl)quinazolin-4(3H)-one], in that order: less than 500 nM and more than 500 nM.
Regarding `CCCC(c1nc2cc(Br)ccc2c(=O)n1CC)N1C[C@@H](C)N[C@@H](C)C1` (stereo partly drawn) [Example 9, 7-bromo-2-(1-((3S,5R)-3,5-dimethylpiperazin-1-yl)butyl)-3-ethylquinazolin-4(3H)-one], the Ki in test [1] was less than 500 nM; on Human μ-opioid receptor, more than 500 nM.
The like results for `CCC[C@@H](c1nc2cc(O[C@@H](CCNC)c3ccccc3)ccc2c(=O)n1C)N1C[C@@H](C)N[C@@H](C)C1` [Example 166, 2-((S)-1-((3S,5R)-3,5-dimethylpiperazin-1-yl)butyl)-3-methyl-7-((S)-3-(methylamino)-1-phenylpropoxy)quinazolin-4(3H)-one] were, in that order, less than 500 nM and more than 500 nM.
Consider `CCC[C@@H](c1nc2ccc(Br)cc2c(=O)n1CC)[C@H]1CCNCC1(F)F` [Example 195, 6-bromo-2-((R)-1-((R)-3,3-difluoropiperidin-4-yl)butyl)-3-ethylquinazolin-4(3H)-one], for which the Ki was less than 500 nM in test [1] and more than 500 nM at Human μ-opioid receptor.
The like results for `CCCC(c1nc2ccc(Br)c(Cl)c2c(=O)n1CC)N1C[C@@H](C)N[C@@H](C)C1` (stereo partly drawn) [Example 23, 6-bromo-5-chloro-2-(1-((3S,5R)-3,5-dimethylpiperazin-1-yl)butyl)-3-ethylquinazolin-4(3H)-one] were, in that order, less than 500 nM and more than 500 nM.
For the compound `CCC[C@H](c1nc2ccc(OC(F)(F)F)cc2c(=O)n1CC)N1CCN[C@@H](C)C1` [Example 204, 3-ethyl-2-((R)-1-((S)-3-methylpiperazin-1-yl)butyl)-6-(trifluoromethoxy)quinazolin-4(3H)-one], the Ki is less than 500 nM in test [1] and more than 500 nM at Human μ-opioid receptor.
In the case of `CCC[C@@H](c1nc2ccncc2c(=O)n1CC)N1CCN[C@@H](C)C1` [Example 67, 3-ethyl-2-((S)-1-((S)-3-methylpiperazin-1-yl)butyl)pyrido[4,3-d]pyrimidin-4(3H)-one], the Ki was more than 5000 nM in test [1] and more than 500 nM on Human μ-opioid receptor.
The like results for `CCC[C@H](c1nc2ccc(Br)cc2c(=O)n1CC)[C@@H]1CCN[C@@H](C)C1` [Example 193, 6-bromo-3-ethyl-2-((S)-1-((2S,4R)-2-methylpiperidin-4-yl)butyl)quinazolin-4(3H)-one] were, in that order, more than 5000 nM and more than 500 nM.
As to `CCC[C@@H](c1nc2ccc(Br)cc2c(=O)n1CC)N1CCN[C@H](CF)C1` [Example 57, 6-bromo-3-ethyl-2-((S)-1-((S)-3-(fluoromethyl)piperazin-1-yl)butyl)quinazolin-4(3H)-one], the values for the Ki (in test [1]; on Human μ-opioid receptor) were less than 500 nM and more than 500 nM, respectively.
Consider `CCC[C@@H](c1nc2ccc(Br)cc2c(=O)n1CC)N1CCN[C@@H](CCC(=O)O)C1` [Example 107, 3-((S)-4-((S)-1-(6-Bromo-3-ethyl-4-oxo-3,4-dihydroquinazolin-2-yl)butyl)piperazin-2-yl)propanoic acid], for which the Ki was more than 5000 nM in test [1] (read-out: α2δ-1 binding) and more than 500 nM on Human μ-opioid receptor (read-out: μ-binding).
With `CCC[C@H](c1nc2cc(F)c(Cl)cc2c(=O)n1C)N1CCN[C@@H](C)C1` [Example 221, 6-chloro-7-fluoro-3-methyl-2-((R)-1-((S)-3-methylpiperazin-1-yl)butyl)quinazolin-4(3H)-one], the results for the Ki (in test [1]; at Human μ-opioid receptor) were 500 to 5000 nM and less than 100 nM, respectively.
As for `CCC[C@H](c1nc2cc(Cl)c(Cl)cc2c(=O)n1C)N1CCN[C@@H](C)C1` [Example 206, 6,7-dichloro-3-methyl-2-((R)-1-((S)-3-methylpiperazin-1-yl)butyl)quinazolin-4(3H)-one], the Ki is less than 500 nM in test [1] and 100 to 500 nM at Human μ-opioid receptor.
For `CCCC(c1nc2cccnc2c(=O)n1CC)N1C[C@@H](C)N[C@@H](C)C1` (stereo partly drawn) [Example 27, 2-(1-((3S,5R)-3,5-dimethylpiperazin-1-yl)butyl)-3-ethylpyrido[3,2-d]pyrimidin-4(3H)-one], in that order: less than 500 nM and more than 500 nM.
For the compound `CCC[C@@H](c1nc2ccc(Cl)cc2c(=O)n1CC)N1CCN[C@@H](CF)C1` [Example 231, 6-chloro-3-ethyl-2-((S)-1-((R)-3-(fluoromethyl)piperazin-1-yl)butyl)quinazolin-4(3H)-one], the Ki in test [1] is more than 5000 nM; at Human μ-opioid receptor, more than 500 nM.
